{"source": "patent US20070219213A1", "about": "“Use of Adrenergic N-Phenylpiperazine Antagonists, Pahrmaceutical Compositions Containning Them, and Methods of Preparing Them” (priority 2004, published 2007)", "key": {"[1]": {"target": "T1, alpha 1D adrenoceptor (rat aorta) (Rattus norvegicus, UniProt P23944)", "T1 construct": "from tissue; host or cells: rat aorta segments with endothelium", "T1 sequence (P23944 1-561)": "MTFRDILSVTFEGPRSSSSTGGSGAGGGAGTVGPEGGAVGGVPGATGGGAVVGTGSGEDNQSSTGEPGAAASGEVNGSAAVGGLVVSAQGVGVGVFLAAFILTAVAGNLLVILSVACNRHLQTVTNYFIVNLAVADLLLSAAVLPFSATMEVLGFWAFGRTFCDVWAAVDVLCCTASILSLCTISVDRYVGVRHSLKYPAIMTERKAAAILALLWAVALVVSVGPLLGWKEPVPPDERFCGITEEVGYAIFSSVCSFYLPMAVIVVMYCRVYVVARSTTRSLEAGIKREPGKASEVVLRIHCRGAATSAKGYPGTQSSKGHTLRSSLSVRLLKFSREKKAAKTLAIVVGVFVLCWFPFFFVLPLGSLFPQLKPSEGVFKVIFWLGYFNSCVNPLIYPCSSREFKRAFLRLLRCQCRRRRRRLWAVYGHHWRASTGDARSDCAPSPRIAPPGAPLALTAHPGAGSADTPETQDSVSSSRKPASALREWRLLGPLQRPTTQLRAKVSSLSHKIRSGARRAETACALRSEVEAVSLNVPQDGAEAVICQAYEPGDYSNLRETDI", "test": "Vasoconstriction assay in rat aorta induced by norepinephrine", "format": "cell-based", "method": "Vasoconstriction Assay in Mouse Aorta Induced By Norepinephrine\nAorta segments with endothelium (3 mm), withdrawn from young male rats (250-300 g), were placed in containers containing physiologic solution (NaCl 122 mM, KCl 5 mM, NaHCO3 15 mM, glucose 11.5 mM, MgCl2 1.2 mM, CaCl2 1.25 mM and KH2PO4 1.2 mM), kept at 37° C. under aeration with a mixture of 95% of O2 and 5% of CO2, and submitted to a pre-charge of 5 mN for 60 minutes. During this period, eventual tension adjustments were performed until the stabilization in 0.5 g, always with renewal with physiologic solution. Then, vasoconstriction was induced by 60 mM KCl solution, in each ring, to verify the viability of the organ on the day of experiment. The preparation was submitted to the contraction with norepinephrine (5×10^−5 M) and, then the rings were washed to reach the basal line (0% of vasoconstriction). The procedure was repeated until the obtainment of a constant curve. Later, a curve, using increasing concentrations of norepinephrine (3×10^−8-5×10^−5 M), was performed for each ring, as a positive control. The segments were washed to reach the basal line (0% of vasoconstriction) and incubated with the test compounds, individually, for 30 minutes. A second norepinephrine curve was performed and obtained data compared to the first control curve. […] The aorta rings were used once for each compound.\nDetermination of the LASSBio 772 Antagonist Potency (pKB) on the Vasoconstriction of Rabbit or Rat Thoracic Aorta."}, "[2]": {"test": "Arterial pressure effects in anesthetized rabbits", "format": "in vivo", "conditions": "rabbit", "method": "Animal and Homodynamic Measurements:\nThe experiments were performed with male rabbits weighing 3 kg, from the CECAL (Centro de Criação de Animais de Laboratório) at Fundação Oswaldo Cruz. The animals were anesthetized with sodium pentobarbital (40 mg/kg) in the ear marginal vein, and anesthesia maintenance was obtained with supplemental intravenous (i.v.) doses of 5 mg/kg as necessary. The […] were tracheomized, inserted with a polyethylene canule, and immobilized with pancuronium bromide (1 mg/kg, i.v.), with supplemental doses of 0.2 mg/kg for each hour of experiment and artificially ventilated with a mechanical fan (Rodent ventilator 7025, Ugo Basile) with a volume of 10 ml/kg and frequency from 40 to 50 incursions/min. The right femoral vein was catheterized for drug administration.\nThe arterial pressure was monitored through abdominal aorta catheter via the right femoral artery and connected to a quartz transductor Hewlett Packard (1290 A), which was connected to an arterial pressure processor and recorder Hewlett Packard (system 7754 with amplifier 8805 B).\nThe systolic (SAP) and diastolic (DAP) arterial pressures were obtained directly from the records and the average arterial pressure (AAP) was calculated by DAP's Sum with a third of the differential pressure [[…]]. The cardiac frequency was determined by counting the pressure waves, visualized with the speed increase of the recorder paper.\nThe cardiac debit (DC) was monitored using an electromagnetic probe, connected to a Skalar flowmeter model MDL 1401. After left thoraxatomy, between the second and third ribs, was made an incision in the pericardium and the heart was exposed to enable the visualization and dissection of the ascending aorta for installation of the electromagnetic probe. The systemic vascular resistance (SVR) was calculated as a quotient of the average arterial pressure by the cardiac debit, multiplied by a conversion factor 80 (SVR=AAP/DC×80) and expressed in dyn/seg/cm-5.\nAt the conclusion of the anesthetic-surgical procedures, a 15-minute period was allowed for stabilization of the homodynamic parameters. Before any pharmacological manipulation the average arterial pressure, cardiac frequency and cardiac debit measurements were obtained. These values were considered basal homodynamic values.\nThe results were expressed as average±standard deviation (E.P.M.) The administration effects of LASSBio 772 with regard to the basal values were analyzed through variance analysis (ANOVA) for repeated measurements. When a significant statistical difference was found in the test ANOVA, the test Newman-Keuls was used to locate the differences. The paired t test was used to analyze the phenylephrine pressure effects before and after the treatment with LASSBio 772B. Differences with p<0.05 were considered significant. All the calculations were done on the computer, using the statistic software Instat-2.0.\nArterial Pressure Effects of LASSBio 772 Administration: […]"}}, "note": "Several values for one entry are separate records, joined by “and”; a condition that tells them apart may be missing. Equal entries are not always repeated."}
{"smiles": "COc1ccccc1N1CCN(CCc2ccc3c(c2)OCO3)CC1", "note": "[LASSBio 772, 1-(2-1,3-Benzodioxol-5-yl-ethyl)-4-(2-methoxy-phenyl)-piperazine]", "values": [{"measurement": "selectivity index for alpha 1D in comparison to alpha 1B subtype", "setting": "[1]", "result": "≥ 10000"}, {"measurement": "Kb", "setting": "[1]; pKB, rat aorta, α1D", "result": "0.0132 nM and 0.0138 nM"}, {"measurement": "affinity for alpha 1D subtype relative to BMY 7378", "setting": "[1]; rat aorta", "result": "≥ 430", "unit": "times"}, {"measurement": "reduction of arterial pressure", "setting": "[2]; 100 μg/kg i.v.", "result": "~10", "unit": "%"}, {"measurement": "average arterial pressure (AAP)", "setting": "[2]; 100 μg/kg i.v., n=5", "result": "79±4", "unit": "mmHg"}, {"measurement": "diastolic arterial pressure (DAP)", "setting": "[2]; 100 μg/kg i.v., n=5", "result": "71±4", "unit": "mmHg"}, {"measurement": "systolic arterial pressure (SAP)", "setting": "[2]; 100 μg/kg i.v., n=5", "result": "94±7", "unit": "mmHg"}, {"measurement": "hypotension", "setting": "[2]; i.v.", "result": "without however causing significant clinically hypotension"}, {"measurement": "dose from which a significant hypo-tensor response was induced", "setting": "[2]; i.v., doses 1-100 μg/kg, versus basal values", "result": "≥ 3", "unit": "µg/kg"}]}
